In test [1] the target is STAT3-gp130 phosphopeptide interaction (STAT3 SH2 domain) (Homo sapiens, UniProt P40763). The test is described as follows: Competition fluorescence polarization assay.
The target in a further test is STAT3:DNA binding. Conditions: electrophoretic mobility shift assay measuring STAT3:DNA binding; cited from earlier work. A general note: In EMSA bound probe runs differently from free probe, usually more slowly.

Where a SMILES comes first, the peptide text is derived from it. [ ]: non-standard residue; d: D form. pY = N[C@@H](Cc1ccc(OP(=O)(O)O)cc1)C(=O)O

STAT3-gp130 phosphopeptide interaction (STAT3 SH2 domain), sequence (P40763 127-711): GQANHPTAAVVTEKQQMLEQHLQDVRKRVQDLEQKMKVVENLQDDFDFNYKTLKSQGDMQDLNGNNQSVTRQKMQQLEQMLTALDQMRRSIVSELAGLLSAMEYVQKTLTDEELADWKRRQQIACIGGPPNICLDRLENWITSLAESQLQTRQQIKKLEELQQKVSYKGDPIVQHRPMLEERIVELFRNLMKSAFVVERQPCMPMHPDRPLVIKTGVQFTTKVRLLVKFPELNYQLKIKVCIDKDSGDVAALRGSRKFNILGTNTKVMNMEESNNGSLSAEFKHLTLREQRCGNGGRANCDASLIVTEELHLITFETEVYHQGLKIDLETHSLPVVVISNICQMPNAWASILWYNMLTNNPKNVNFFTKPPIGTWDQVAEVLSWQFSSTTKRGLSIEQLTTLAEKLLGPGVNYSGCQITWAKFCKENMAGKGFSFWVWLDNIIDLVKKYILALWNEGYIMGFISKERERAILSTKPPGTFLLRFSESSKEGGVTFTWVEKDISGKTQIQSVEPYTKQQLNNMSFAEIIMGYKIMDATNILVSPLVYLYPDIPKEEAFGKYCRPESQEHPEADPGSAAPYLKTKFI

For `CC(=O)NCC(=O)N[C@@H](Cc1ccc(OP(=O)(O)O)cc1)C(=O)N[C@@H](CC(C)C)C(=O)N1CCC[C@H]1C(=O)N[C@@H](CCC(N)=O)C(=O)N[C@H](C(=O)N[C@H](C(N)=O)C(C)C)[C@@H](C)O` [ac-pTyr] (Ac-G[pY]LPQTV-NH2), the IC50 (in general, the point on the concentration scale where inhibition reaches its midpoint) in test [1] was determined as 610 nM. Consider “Ac-G[pY]LPQTV-NH2 [gp130-derived phosphopeptide]”, for which the IC50 at STAT3:DNA binding was 150 nM.
